Values of other authors in US6399640B1, “Arylthiazolidinedione and aryloxazolidinedione derivatives” (Merck & Co., Inc., priority 1999, dated 2002).

Key:
ob/ob mice = settings: Cantello et al, J. Med. Chem. 1994
PPARγ = settings: subsequent studies; Willson et al, J. Med. Chem. 1996
diabetic mouse model = settings: Sohda et al, Chem. Pharm. Bull. 1982

SMILES | antihyperglycemic activity (ob/ob mice) | amounts required for PPARγ activation (PPARγ) | antihyperglycemic effect (diabetic mouse model)
CN(CCOc1ccc(C2SC(=O)NC2=O)cc1)c1nc2ccccc2o1 (stereo not drawn) [(1)] | no antihyperglycemic activity | relatively high amounts | 
O=C1NC(=O)C(c2ccc(OCCc3ccccc3)cc2)S1 (stereo not drawn) [(2), 5-[4-(phenylethoxy)phenyl]-2,4-thiazolidinedione] |  |  | no antihyperglycemic effect
